Measurements from US20090178158A1, “RESISTANCE AGAINST PARASITIC WEEDS” (Plant Research International B.V., priority 2005, published 2009).
“And” between values parts separate entries of the source, which are not always exact repeats. Identical values can stand only once. “Also recorded” adds a separate entry of the source.

Key:
Striga hermonthica seeds [1] = assay: Germination bioassay: S. hermonthica seeds with root exudates of treated host seedlings (maize, cowpea, sorghum); type: in vivo; settings: for maize root exudate-induced S. hermonthica germination: maize W22 grown 5 days with 100 μM fosmidomycin or 10 μM mevastatin, control 42±2%
[2] = test system: carotenoid composition of shoots and roots of maize seedlings; assay: Carotenoid analysis (HPLC) of shoots and roots of treated maize seedlings; type: in vivo
maize seedlings = assay: Phenotype of inhibitor-treated maize seedlings; settings: 10 μM mevastatin, 100 μM fosmidomycin, 25 μM fluridone, 200 μM amitrole (21° C.), 0.1-1 mM naproxen, 1 mM sodium tungstate, 0.02-0.2 mM abscisic acid
Orobanche crenata seeds = type: in vivo; settings: 10 μM fluridone, versus control, FIG. 3F
Striga hermonthica seeds [3] = type: in vivo
[4] = Roots of 10-day old maize seedlings, 10 μM fluridone, 1 mM naproxen, 0.1 mM sodium tungstate, 0.02 mM abscisic acid, n.d. = below detection limit
[5] = Shoots of 10-day old maize seedlings, 10 μM fluridone, 1 mM naproxen, 0.1 mM sodium tungstate, 0.02 mM abscisic acid, n.d. = below detection limit
[6] = maize shoots, versus control (Table 1)

CC1=CC(=O)CC(C)(C)C1(O)/C=C/C(C)=C\C(=O)O (racemic) [abscisic acid, (±)-abscisic acid]
germination of S. hermonthica induced by root exudates of treated maize (Striga hermonthica seeds [1]; 0.02 or 0.2 mM abscisic acid, without/with 10 μM fluridone, FIG. 3D): very low germination; also recorded: strongly reduced | violaxanthin, carotenoid content [2, 4]: 0.07 μg · g^−1 fwt | β-carotene, carotenoid content [2, 4]: 0.01 μg · g^−1 fwt | lutein, carotenoid content [2, 5]: 73.01 μg · g^−1 fwt | neoxanthin, carotenoid content [2, 5]: 115.29 μg · g^−1 fwt | violaxanthin, carotenoid content [2, 5]: 50.84 μg · g^−1 fwt | β-carotene, carotenoid content [2, 5]: 47.35 μg · g^−1 fwt | β-carotene concentration lower than in control roots ([2]; abscisic acid treated maize roots (0.02 mM, Table 1)): 50% and ~65% | carotenoid accumulation in shoots (β-carotene, violaxanthin, neoxanthin, lutein) [2, 6]: decreased accumulation | morphology / appearance of treated seedlings (maize seedlings): slightly thicker and more brittle

CC1=C[C@H](O/C=C2/C(=O)O[C@@H]3c4ccccc4C[C@H]23)OC1=O [GR24]
germination of S. hermonthica induced by GR24 alone (Striga hermonthica seeds [1]; suboptimal concentration of GR24 (0.01 mg.L^−1, FIG. 3E)): 48±1%

Nc1nc[nH]n1 [amitrole, 3-amino-1,2,4-triazole]
germination of S. hermonthica induced by root exudates of treated maize (Striga hermonthica seeds [1]; maize Dent, 200 μM amitrole, grown at 21° C., versus control, FIG. 3C): lower germination | morphology / appearance of treated seedlings (maize seedlings): yellow-green phenotype

O=CN(O)CCCP(=O)(O)O [fosmidomycin]
maize root exudate-induced S. hermonthica germination (Striga hermonthica seeds [1]; FIG. 3A): 37±2% | morphology / appearance of treated seedlings (maize seedlings): slightly pale-yellow leaves

CC[C@H](C)C(=O)O[C@H]1CCC=C2C=C[C@H](C)[C@H](CC[C@@H]3C[C@@H](O)CC(=O)O3)[C@H]21 [mevastatin]
maize root exudate-induced S. hermonthica germination (Striga hermonthica seeds [1]; FIG. 3A): 33±3%

COc1ccc2cc([C@H](C)C(=O)[O-])ccc2c1.[Na+] [naproxen, (S)-6-methoxy-α-methyl-2-naphthaleneacetic acid sodium salt]
germination of S. hermonthica seeds (Striga hermonthica seeds [1]; in vivo, sodium salt): 20±1% and 15±2% | carotenoid accumulation in shoots (β-carotene, violaxanthin, neoxanthin, lutein) ([2]; in vivo): decreased accumulation | concentration of violaxanthin higher than in control roots ([2]; in vivo): about 3 fold | concentration of β-carotene higher than in control roots ([2]; in vivo): 2 fold | lutein, carotenoid content ([2]; in vivo): 68.58 μg · g^−1 fwt | neoxanthin, carotenoid content ([2]; in vivo): 111.81 μg · g^−1 fwt

[Na+].[Na+].[O]=[W](=[O])([O-])[O-] [sodium tungstate]
effect on root exudate induced S. hermonthica germination (Striga hermonthica seeds [1]; maize Dent, 0.1 mM and 1 mM sodium tungstate, FIG. 3D): did not affect germination; also recorded: did not have an effect | violaxanthin, carotenoid content [2, 4]: 0.22 μg · g^−1 fwt | β-carotene, carotenoid content [2, 4]: 0.03 μg · g^−1 fwt | lutein, carotenoid content [2, 5]: 83.94 μg · g^−1 fwt | neoxanthin, carotenoid content [2, 5]: 147.58 μg · g^−1 fwt | violaxanthin, carotenoid content [2, 5]: 72.19 μg · g^−1 fwt | β-carotene, carotenoid content [2, 5]: 64.29 μg · g^−1 fwt | concentration of violaxanthin higher than in control roots ([2]; maize roots, 1 mM naproxen, 0.1 mM sodium tungstate (Table 1)): 2 fold | carotenoid accumulation in shoots (β-carotene, violaxanthin, neoxanthin, lutein) [2, 6]: did not affect carotenoid accumulation

fluridone
germination of S. hermonthica induced by root exudates of treated maize (Striga hermonthica seeds [1]; 10 μM fluridone, dim light, FIG. 3B): negligible | germination of S. hermonthica induced by root exudates of treated maize (Striga hermonthica seeds [1]; 10 μM fluridone, normal light, control 13±1%, FIG. 3B): virtually no germination | germination of S. hermonthica induced by fluridone-treated cowpea root exudates with GR24 (Striga hermonthica seeds [1]; 10 μM fluridone-treated cowpea exudate plus 0.01 mg.L^−1 GR24, FIG. 3E): 53±3% | germination of S. hermonthica seeds induced by cowpea root exudates (Striga hermonthica seeds [1]; cowpea watered with 10 μM fluridone for 5 days, non-treated 49±2%, FIG. 3E): 11±3% | germination induced by root exudates lower than for control maize (Striga hermonthica seeds [1]; maize W22, 25 μM fluridone, 5 days, FIG. 3A): about 80% | sorghum root exudate induced S. hermonthica germination (Striga hermonthica seeds [1]; sorghum, 4 μM fluridone, FIG. 3G): completely blocked | germination of O. crenata seeds with fluridone-treated cowpea root exudate (Orobanche crenata seeds): lower than that induced by the control; also recorded: decreased this germination by about the same percentage as for S. hermonthica | phytoene in treated roots ([2]; fluridone treated maize roots): phytoene accumulated | phytoene in treated shoots ([2]; shoot of fluridone treated maize plants): phytoene accumulated | effect on the attachment phase of Striga (Striga hermonthica seeds [3]; control experiments with GR24 inducing full germination (data not shown)): not affecting the attachment phase | number of germinated/attached seeds/tubercles of Striga (Striga hermonthica seeds [3]; rice, fluridone sprayed to the leaves on 3 consecutive days, even at 0.001 and 0.01 μM, FIG. 7B): strong, significant reduction | number of germinated/attached Striga seeds (Striga hermonthica seeds [3]; rice, irrigation once with 100 mL of 0.1 μM fluridone, scored after 6 weeks, FIG. 7A): significantly reduced
